In US8501722B2, “Methods and compositions for treating bacterial infection” (priority 2009, dated 2013):
Values joined by “and” are separate entries in the source; they are usually repeats but may differ in a detail not shown here. Identical values can stand only once. Like-named read-outs stand apart in the source and are kept apart here.

Legend:
SK(+)GAS = assay: GAS growth by OD600 nm of culture; format: cell-based, Group A Streptococcus; conditions: for activity at 10 µg/mL / activity at 20 µg/mL / activity at 30 µg/mL / activity at 40 µg/mL / activity at 50 µg/mL / activity at 60 µg/mL / activity at 70 µg/mL / activity at 0.1 µg/mL / activity at 0.3 µg/mL / activity at 2.5 µg/mL / activity at 5 µg/mL: Streptococcus; for activity at 10 µg/mL: read-out: GAS Growth (% control), compound conc. 10 μg/ml; for activity at 20 µg/mL: read-out: GAS Growth (% control), compound conc. 20 μg/ml; for activity at 30 µg/mL: read-out: GAS Growth (% control), compound conc. 30 μg/ml; for activity at 40 µg/mL: read-out: GAS Growth (% control), compound conc. 40 μg/ml; for activity at 50 µg/mL: read-out: GAS Growth (% control), compound conc. 50 μg/ml; for activity at 60 µg/mL: read-out: GAS Growth (% control), compound conc. 60 μg/ml; for activity at 70 µg/mL: read-out: GAS Growth (% control), compound conc. 70 μg/ml; for activity at 0.1 µg/mL: read-out: GAS Growth (% control), compound conc. 0.1 μg/ml; for activity at 0.3 µg/mL: read-out: GAS Growth (% control), compound conc. 0.3 μg/ml; for activity at 2.5 µg/mL: read-out: GAS Growth (% control), compound conc. 2.5 μg/ml; for activity at 5 µg/mL: read-out: GAS Growth (% control), compound conc. 5 μg/ml

Protocol for streptokinase (SK): SK− Ecoli and SKCtr1's dose response relationship with these compounds were then examined.
The effects of 10 hit compounds out of the 23 identified were further tested by dose response assays. […] These compounds were tested for inhibition of ska expression by measuring SK activity in supernatants of GAS exposed to the test compound or control vehicle alone (DMSO). SK(+)GAS were cultured with hit compounds at a dose range of 10 nM to 100 μM at 37° C. for 16-20 hours. Supernatants of SK(+)GAS cultures were measured for SK activity using chromogenic substrate 2403 (Diapharma group Inc., West Chester, Ohio), according to the manufacturer's instruction and simultaneously monitored for nonspecific effects on GAS growth by measuring OD600 nm.
The positive compounds identified in dose response assays are subjected to SK assay to identify compounds inhibiting SK expression in SK(+)GAS. Briefly, SK(+)GAS is grown at the presence of hit compounds at a dose range determined by dose response assays within which SK(−) GAS growth is inhibited less than 10% while SKKanGAS growth is inhibited more than 50% under 20 μg/ml kanamycin.

| SMILES | activity at 10 µg/mL (SK(+)GAS) [%] | activity at 20 µg/mL (SK(+)GAS) [%] | activity at 40 µg/mL (SK(+)GAS) [%] | activity at 70 µg/mL (SK(+)GAS) [%] | SK Expression (% control) (streptokinase (SK); compound conc. 10 μg/ml) | SK Expression (% control) (streptokinase (SK); compound conc. 20 μg/ml) | SK Expression (% control) (streptokinase (SK); compound conc. 30 μg/ml) | SK Expression (% control) (streptokinase (SK); compound conc. 40 μg/ml) | SK Expression (% control) (streptokinase (SK); compound conc. 60 μg/ml) | activity at 0.1 µg/mL (SK(+)GAS) [%] | activity at 0.3 µg/mL (SK(+)GAS) [%] | activity at 2.5 µg/mL (SK(+)GAS) [%] | activity at 5 µg/mL (SK(+)GAS) [%] | SK Expression (% control) (streptokinase (SK); compound conc. 0.1 μg/ml) | SK Expression (% control) (streptokinase (SK); compound conc. 0.3 μg/ml) | SK Expression (% control) (streptokinase (SK); compound conc. 1.0 μg/ml) | SK Expression (% control) (streptokinase (SK); compound conc. 3 μg/ml) | SK Expression (% control) (streptokinase (SK); compound conc. 5 μg/ml) | other results |
| --- | --- | --- | --- | --- | --- | --- | --- | --- | --- | --- | --- | --- | --- | --- | --- | --- | --- | --- | --- |
| CCn1c(SCc2ccccc2)nc2c(c1=O)C1(CCCC1)Cc1ccccc1-2 [AK968] | 96 | 105 | 117 | 130 | 83 | 64 | 57 % control | 54 | 33 % control | – | – | – | – | – | – | – | – | – | activity at 30 µg/mL (SK(+)GAS): 112%; activity at 50 µg/mL (SK(+)GAS): 124%; activity at 60 µg/mL (SK(+)GAS): 123%; SK Expression (% control) (streptokinase (SK); compound conc. 50 μg/ml): 40 % control; SK Expression (% control) (streptokinase (SK); compound conc. 70 μg/ml): 45 % control |
| C=CCn1c(SCCO)nc2c(c1=O)C(C)(C)Cc1ccccc1-2 [CCG-203041, 3-Allyl-2-(2-hydroxyethylthio)-5,5-dimethyl-5,6-dihydrobenzo[h]quinazolin-4(3H)-one] | – | 107 | 60 | 50 | 57 | – | 28 % control | – | 12 % control | 100 | 102 | 104 | 106 | 93 % control | 90 % control | 90 % control | 87 % control | – | – |
| C=CCn1c(SCCOC)nc2c(c1=O)C1(CCCCC1)Cc1ccccc1-2 [CCG-102493, 3-allyl-2-(2-methoxyethylthio)-3H-spiro[benzo[h]quinazoline-5,1′-cyclohexan]-4(6H)-one] | 94 | – | – | 129 | – | – | 64 % control and 42 % control | – | 52 % control and 27 % control | 99 | 103 | 93 | 92 | 75 % control | 98 % control | 54 % control | 51 % control | 98 % control and 50 % control | activity at 30 µg/mL (SK(+)GAS): 110%; activity at 50 µg/mL (SK(+)GAS): 123%; activity at 60 µg/mL (SK(+)GAS): 125%; SK Expression (% control) (streptokinase (SK); compound conc. 2.5 μg/ml): 101 % control; SK Expression (% control) (streptokinase (SK); compound conc. 50 μg/ml): 49 % control; SK Expression (% control) (streptokinase (SK); compound conc. 70 μg/ml): 52 % control |
| C=CCn1c(SCCOC)nc2c(c1=O)C(C)(C)c1ccccc1-2 [CCG-203572, 3-allyl-2-(2-methoxyethylthio)-5,5-dimethyl-3H-indeno[1,2-d]pyrimidin-4(5H)-one] | 97 | 96 | 87 | 96 | – | 10 | – | 9 | – | 101 | 101 | 101 | 97 | 100 % control and 128 % control | 101 % control and 129 % control | 102 % control and 134 % control | 102 % control and 75 % control | 21 % control | GAS Growth (% control) (SK(+)GAS; compound conc. 0.3 μg/ml): 101 % control |
| C=CCn1c(SCCc2ccc(OC)cc2)nc2c(c1=O)C1(CCCCC1)Cc1ccccc1-2 [CCG-102489, 3-allyl-2-(4-methoxyphenethylthio)-3H-spiro[benzo[h]quinazoline-5,1′-cyclohexan]-4(6H)-one] | – | – | 114 | – | – | – | – | 79 | – | – | – | – | 106 | – | – | – | – | 91 % control | – |
| C=CCn1c(NCC)nc2c(c1=O)C1(CCCCC1)Cc1ccccc1-2 [CCG-203043, 3-allyl-2-(ethylamino)-3H-spiro[benzo[h]quinazoline-5,1′-cyclohexan]-4(6H)-one] | – | 113 | 115 | 124 | 41 | – | 32 % control | – | 24 % control | 101 | 104 | 106 | 116 | 96 % control | 96 % control | 94 % control | 62 % control | – | – |
| C=CCn1c(SCCOC)nc2c(c1=O)CC(C)c1ccccc1-2 (stereo not shown) [CCG-203574, 3-allyl-2-(2-methoxyethylthio)-6-methyl-5,6-dihydrobenzo[h]quinazolin-4(3H)-one] | 95 | 85 | 68 | – | 10 | 6 | – | 6 | – | – | – | – | 102 | – | – | – | – | 80 % control | – |
| C=CCn1c(SCC(N)=O)nc2c(c1=O)C(C)(C)Cc1ccccc1-2 [CCG-203037, 2-(3-Allyl-5,5-dimethyl-4-oxo-3,4,5,6-tetrahydrobenzo[h]quinazolin-2-ylthio)acetamide] | – | 105 | 102 | 106 | 92 | – | 79 % control | – | 38 % control | 98 | 99 | 101 | 102 | 96 % control | 97 % control | 96 % control | 94 % control | – | – |
| C=CCn1c(SC)nc2c(c1=O)C1(CCCCC1)Cc1ccccc1-2 [CCG-102620, 3-Allyl-2-(methylthio)-3H-spiro[benzo[h]quinazoline-5,1′-cyclohexan]-4(6H)-one] | 106 | 104 | 115 | – | 50 | 33 | – | 27 | – | – | – | – | 104 | – | – | – | – | 62 % control | – |
| C=CCn1c(SCCOC)nc2c(c1=O)C(C)(C)Cc1cc(OC)ccc1-2 [CCG-203576, 3-allyl-8-methoxy-2-(2-methoxyethylthio)-5,5-dimethyl-5,6-dihydrobenzo[h]quinazolin-4(3H)-one] | 98 | 99 | 101 | 105 | – | 19 | – | 11 | – | 102 | 101 | 100 | 99 | 99 % control and 93 % control | 99 % control and 98 % control | 99 % control and 89 % control | 100 % control and 61 % control | 30 % control | GAS Growth (% control) (SK(+)GAS; compound conc. 2.5 μg/ml): 100 % control |
| C=CCn1c(SCC)nc2c(c1=O)C(C)(C)Cc1ccccc1-2 [1S-26137] | 89 | 91 | 98 | – | 20 | 22 | – | 19 | – | – | – | – | 89 | – | – | – | – | 21 % control | activity at 30 µg/mL (SK(+)GAS): 105% |
| C=CCn1c(SCc2ccc(NC(C)=O)cc2)nc2c(c1=O)C1(CCCCC1)Cc1ccccc1-2 [CCG-102491, N-(4-((3-allyl-4-oxo-4,6-dihydro-3H-spiro[benzo[h]quinazoline-5,1′-cyclohexane]-2-ylthio)methyl)phenyl)acetamide] | – | – | 112 | – | – | – | – | 96 | – | – | – | – | 109 | – | – | – | – | 85 % control | – |
| C=CCn1c(SCc2ccc(OC)cc2)nc2c(c1=O)C1(CCCCC1)Cc1ccccc1-2 [CCG-102483, 3-allyl-2-(4-methoxybenzylthio)-3H-spiro[benzo[h]quinazoline-5,1′-cyclohexan]-4(6H)-one] | – | – | 115 | – | – | – | – | 80 | – | – | – | – | 104 | – | – | – | – | 119 % control | – |
| C=CCn1c(SCc2ccccc2)nc2c(c1=O)C(C)(C)Cc1ccccc1-2 [compound 25203] | 92 | 100 | 118 | 143 | 96 | 84 | 70 % control | 63 | 52 % control | – | – | 89 | – | – | – | – | – | – | activity at 30 µg/mL (SK(+)GAS): 110%; activity at 50 µg/mL (SK(+)GAS): 125%; activity at 60 µg/mL (SK(+)GAS): 132%; SK Expression (% control) (streptokinase (SK); compound conc. 2.5 μg/ml): 110 % control; SK Expression (% control) (streptokinase (SK); compound conc. 50 μg/ml): 58 % control; SK Expression (% control) (streptokinase (SK); compound conc. 70 μg/ml): 60 % control |
